Where two headings read alike, the source gives them in different places. One block for each compound: values may come before it. Positions of bridges follow the written chain, without caps; N, C: chain ends. Residues, ends and D or L forms follow the SMILES beside them. No end group written: not given here. PEG = not defined here
Legend:
c-Mp1 [1] = target: T1, c-Mp1 (Homo sapiens, UniProt P40238); conditions: cited from earlier work
T1 sequence (P40238 26-635): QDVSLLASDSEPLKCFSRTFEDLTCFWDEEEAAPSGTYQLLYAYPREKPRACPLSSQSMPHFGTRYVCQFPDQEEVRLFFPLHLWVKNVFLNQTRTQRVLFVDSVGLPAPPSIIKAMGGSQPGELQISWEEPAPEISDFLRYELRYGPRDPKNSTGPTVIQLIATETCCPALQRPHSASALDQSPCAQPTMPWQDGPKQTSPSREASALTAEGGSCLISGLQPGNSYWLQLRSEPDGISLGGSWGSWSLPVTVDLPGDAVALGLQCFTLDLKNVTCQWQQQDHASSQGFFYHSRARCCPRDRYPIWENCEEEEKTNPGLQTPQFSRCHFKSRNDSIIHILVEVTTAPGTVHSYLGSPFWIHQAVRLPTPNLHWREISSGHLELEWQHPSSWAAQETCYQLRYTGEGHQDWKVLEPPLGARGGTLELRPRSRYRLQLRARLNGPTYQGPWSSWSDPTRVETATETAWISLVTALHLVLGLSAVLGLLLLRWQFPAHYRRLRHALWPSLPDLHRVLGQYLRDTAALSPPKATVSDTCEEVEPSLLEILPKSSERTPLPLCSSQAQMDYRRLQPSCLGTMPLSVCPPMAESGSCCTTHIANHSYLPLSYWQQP

c-Mp1 [2] = target: T1, c-Mp1; conditions: cited from earlier work; remark: listed apart in the source
human mpl receptor = target: T2, human mpl receptor (Homo sapiens, UniProt P40238); assay: TPO in vitro bioassay: mitogenic/cell-proliferation assay with IL-3 dependent murine 32D cells transfected with human mpl receptor; format: cell-based; conditions: cell proliferation assay
T2 construct: murine 32D cells transfected with the full-length c-Mp1; expressed in transfected cells; host or cells: IL-3 dependent clone of murine 32D cells
T2 sequence (P40238 26-635): T1 sequence (P40238 26-635)
Method: Bioactivity assay. The TPO in vitro bioassay is a mitogenic assay utilizing an IL-3 dependent clone of murine 32D cells that have been transfected with human mpl receptor. This assay is described in greater detail in WO 95/26746. Cells are maintained in MEM medium containing 10% Fetal Clone II and 1 ng/ml mIL-3. Prior to sample addition, cells are prepared by rinsing twice with growth medium lacking mIL-3. An extended twelve point TPO standard curve is prepared, ranging from 3333 to 39 pg/ml. Four dilutions, estimated to fall within the linear portion of the standard curve, (1000 to 125 pg/ml), are prepared for each sample and run in triplicate. A volume of 100 μl of each dilution of sample or standard is added to appropriate wells of a 96 well microtiter plate containing 10,000 cells/well. After forty-four hours at 37° C. and 10% CO2, MTS (a tetrazolium compound which is bioreduced by cells to a formazan) is added to each well. Approximately six hours later, the optical density is read on a plate reader at 490 nm. A dose response curve (log TPO concentration vs. O.D.—Background) is generated and linear regression analysis of points which fall in the linear portion of the standard curve is performed. Concentrations of unknown test samples are determined using the resulting linear equation and a correction for the dilution factor.
The resulting peptides are readily accessible by conventional solid phase peptide synthesis methods (Merrifiled, R. B., Journal of the American Chemical Society 85:2149 (1963)) with either Fmoc or t-Boc chemistry. […] This might be due to differences in the conditions used in the two assays. […] It is interesting to note that a wide range of length is tolerated by the linker. The optimal linker with the selected TMP monomers (SEQ ID NO: 1) apparently is composed of 8 glycines.

platelets = assay: platelet production in normal mice, dose response with 7-day micro-osmotic pumps; format: in vivo
Method: Mice. Normal female BDF1 approximately 10-12 weeks of age.
Bleed schedule. Ten mice per group treated on day 0, two groups started 4 days apart for a total of 20 mice per group. Five mice bled at each time point, mice were bled a minimum of three times a week. Mice were anesthetized with isoflurane and a total volume of 140-160 μl of blood was obtained by puncture of the orbital sinus. Blood was counted on a Technicon HIE blood analyzer running software for murine blood. Parameters measured were white blood cells, red blood cells, hematocrit, hemoglobin, platelets, neutrophils.
Treatments. Mice were either injected subcutaneously for a bolus treatment or implanted with 7 day micro-osmotic pumps for continuous delivery. Subcutaneous injections were delivered in a volume of 0.2 ml. Osmotic pumps were inserted into a subcutaneous incision made in the skin between the scapulae of anesthetized mice. Compounds were diluted in PBS with 0.1% BSA. All experiments included one control group, labeled “carrier” that were treated with this diluent only. The concentration of the test articles in the pumps was adjusted so that the calibrated flow rate from the pumps gave the treatment levels indicated in the graphs.
Compounds. A dose titration of the compound was delivered to mice in 7 day micro-osmotic pumps. Mice were treated with various compounds at a single dose of 100 ug/kg in 7 day osmotic pumps. Some of the same compounds were then given to mice as a single bolus injection.

Compound: IEGPTLRQWLAARA-OH [TMP monomer, IEGPTLRQWLAARA]
EC50 (c-Mp1 [1]): 400 nM | IC50 (c-Mp1 [2]; read-out: IC50): 2 nM

Compound: IEGPTLRQALAARAGGGGGGGGIEGPTLRQALAARA-OH [Peptide 16, IEGPTLRQALAARA-GGGGGGGG-IEGPTLRQALAARA]
in vitro bioactivity, in words (human mpl receptor): inactive

Compound: CC[C@H](C)[C@H](N)C(=O)N[C@@H](CCC(=O)O)C(=O)NCC(=O)N1CCC[C@H]1C(=O)N[C@H](C(=O)N[C@@H](CC(C)C)C(=O)N[C@@H](CCCNC(=N)N)C(=O)N[C@@H](CCC(N)=O)C(=O)N[C@@H](Cc1c[nH]c2ccccc12)C(=O)N[C@@H](CC(C)C)C(=O)N[C@@H](C)C(=O)N[C@@H](C)C(=O)N[C@@H](CCCNC(=N)N)C(=O)N[C@@H](C)C(=O)NCCCC[C@H](NC(=O)CCNC(=O)[C@H](C)NC(=O)[C@H](CCCNC(=N)N)NC(=O)[C@H](C)NC(=O)[C@H](C)NC(=O)[C@H](CC(C)C)NC(=O)[C@H](Cc1c[nH]c2ccccc12)NC(=O)[C@H](CCC(N)=O)NC(=O)[C@H](CCCNC(=N)N)NC(=O)[C@H](CC(C)C)NC(=O)[C@@H](NC(=O)[C@@H]1CCCN1C(=O)CNC(=O)[C@H](CCC(=O)O)NC(=O)[C@@H](N)[C@@H](C)CC)[C@@H](C)O)C(N)=O)[C@@H](C)O [TMP C-C dimer]
EC50 (c-Mp1 [1]): 0.1 nM | IC50 (c-Mp1 [2]; read-out: binding affinity): 0.5 nM

Compound: TMP-GGGC(PEG)GGGG-TMP (IEGPTLRQWLAARAGGGC(PEG)GGGGIEGPTLRQWLAARA; reading uncertain) [Peptide 20]
activity compared with unpegylated rHu-MGDF (platelets; 10 μg/kg/day vs 100 μg/kg/day unpegylated rHu-MGDF, same experiment): about equally active | percent of maximal activity (platelets; 10 μg/kg/day, 7-day micro-osmotic pumps): about 50% | dose at which the maximum effect was seen (platelets; 7-day micro-osmotic pumps, data not shown): 100 µg/kg/day | in vitro bioactivity, in words (human mpl receptor): higher in vitro bioactivity as compared to their unpegylated counterparts

Compound: IEGPTLRQWLAARAGGGNGSGGIEGPTLRQWLAARA-OH [Peptide 21, TMP-GGGNGSGG-TMP]
in vitro bioactivity, in words (human mpl receptor): activity comparable to that of the -(Gly)8-linked analog

Compound: CC[C@H](C)[C@H](N)C(=O)N[C@@H](CCC(=O)O)C(=O)NCC(=O)N1CCC[C@H]1C(=O)N[C@H](C(=O)N[C@@H](CC(C)C)C(=O)N[C@@H](CCCNC(=N)N)C(=O)N[C@@H](CCC(N)=O)C(=O)N[C@@H](CS)C(=O)N[C@@H](CC(C)C)C(=O)N[C@@H](C)C(=O)N[C@@H](C)C(=O)N[C@@H](CCCNC(=N)N)C(=O)N[C@@H](C)C(=O)NCC(=O)NCC(=O)NCC(=O)NCC(=O)NCC(=O)NCC(=O)NCC(=O)NCC(=O)N[C@H](C(=O)N[C@@H](CCC(=O)O)C(=O)NCC(=O)N1CCC[C@H]1C(=O)N[C@H](C(=O)N[C@@H](CC(C)C)C(=O)N[C@@H](CCCNC(=N)N)C(=O)N[C@@H](CCC(N)=O)C(=O)N[C@@H](CS)C(=O)N[C@@H](CC(C)C)C(=O)N[C@@H](C)C(=O)N[C@@H](C)C(=O)N[C@@H](CCCNC(=N)N)C(=O)N[C@@H](C)C(=O)O)[C@@H](C)O)[C@@H](C)CC)[C@@H](C)O [Peptide 15, IEGPTLRQCLAARA-GGGGGGGG-IEGPTLRQCLAARA] (H-IEGPTLRQCLAARAGGGGGGGGIEGPTLRQCLAARA-OH; N-terminus assumed)
in vitro bioactivity, in words (human mpl receptor): inactive

Compound: CC[C@H](C)[C@H](N)C(=O)N[C@@H](CCC(=O)O)C(=O)NCC(=O)N1CCC[C@H]1C(=O)N[C@H](C(=O)N[C@@H](CC(C)C)C(=O)N[C@@H](CCCNC(=N)N)C(=O)N[C@@H](CCC(N)=O)C(=O)N[C@H]1CSSC[C@@H](C(=O)N[C@@H](CC(C)C)C(=O)N[C@@H](C)C(=O)N[C@@H](C)C(=O)N[C@@H](CCCNC(=N)N)C(=O)N[C@@H](C)C(=O)O)NC(=O)[C@H](CCC(N)=O)NC(=O)[C@H](CCCNC(=N)N)NC(=O)[C@H](CC(C)C)NC(=O)[C@H]([C@@H](C)O)NC(=O)[C@@H]2CCCN2C(=O)CNC(=O)[C@H](CCC(=O)O)NC(=O)[C@H]([C@@H](C)CC)NC(=O)CNC(=O)CNC(=O)CNC(=O)CNC(=O)CNC(=O)CNC(=O)CNC(=O)CNC(=O)[C@H](C)NC(=O)[C@H](CCCNC(=N)N)NC(=O)[C@H](C)NC(=O)[C@H](C)NC(=O)[C@H](CC(C)C)NC1=O)[C@@H](C)O [Peptide 14] (H-IEGPTLRQCLAARAGGGGGGGGIEGPTLRQCLAARA-OH; disulfide 9-31; N-terminus assumed)
in vitro bioactivity, in words (human mpl receptor): inactive

Compound: TMP-GGGK(PEG)GGGG-TMP (IEGPTLRQWLAARAGGGK(PEG)GGGGIEGPTLRQWLAARA; reading uncertain) [Peptide 19]
in vitro bioactivity, in words (human mpl receptor): higher in vitro bioactivity as compared to their unpegylated counterparts

fold increase in potency as compared to the monomer (human mpl receptor): about 100 fold | fold less active than the GGGG-linked analog (human mpl receptor): > 10 fold
Compound: IEGPTLRQWLAARAGPNGIEGPTLRQWLAARA-OH [Peptide 13, TMP-GPNG-TMP]

— patent publication US20070142295A1, “Thrombopoietic compounds” (AMGEN INC., priority 1998, published 2007)
